Assays:
Format in all cases: cell-based
Pyricularia oryzae = test: microbe, parasite or virus in culture; settings: for Observed efficacy: single active; for inhibition of growth at 4 ppm / inhibition of growth at 0.016 ppm / inhibition of growth at 0.063 ppm / inhibition of growth at 0.25 ppm / inhibition of growth at 1 ppm: Pyricularia oryzae, 168 h, read-out: Observed efficacy
Septoria tritici = test: Activity against leaf blotch on wheat caused by Septoria tritici (microtiter plate); settings: single active
Botrytis cinerea = test: Activity against the grey mold Botrytis cinerea in the microtiterplate test; settings: single active
[1] = Botrytis cinerea, 168 h, read-out: Observed efficacy
[2] = Zymoseptoria tritici, 168 h, 0.25 ppm, read-out: Observed efficacy
[3] = Zymoseptoria tritici, 168 h, read-out: Observed efficacy
[4] = Zymoseptoria tritici, 168 h, 0.016 ppm, read-out: Observed efficacy
[5] = Zymoseptoria tritici, 168 h, 0.063 ppm, read-out: Observed efficacy
[6] = Botrytis cinerea, 168 h, 0.063 ppm, read-out: Observed efficacy

O=C(NC1CCC1c1ccc(Cl)cc1Cl)c1cccnc1C(F)(F)F (stereo in doubt) [Cyclobutrifuram, cyclobutrifluram]
Observed efficacy (Pyricularia oryzae; 1 ppm): 14%
Observed efficacy (Septoria tritici; 0.25 ppm): 34%

CO/C=C(/C(=O)OC)c1ccccc1Oc1cc(Oc2ccccc2C#N)ncn1 [Azoxystrobin, azoxystrobin]
Observed efficacy (Pyricularia oryzae; 0.016 ppm): 59%
Observed efficacy (Septoria tritici; 0.016 ppm): 3%
Observed efficacy (Septoria tritici; 0.063 ppm): 43%

O=C(Nc1ccccc1-c1ccc(Cl)cc1)c1cccnc1Cl [Boscalid, boscalid]
inhibition of growth at 4 ppm (Pyricularia oryzae): 12%
inhibition of growth at 1 ppm (Botrytis cinerea; [1]): 76%
inhibition of growth at 0.25 ppm (Septoria tritici; [2]): 21%
inhibition of growth at 1 ppm (Septoria tritici; [3]): 62%

Cc1cc(C2=NC(C)(C)Oc3c2ccc(F)c3F)cnc1C(F)F [Compound 1-1]
inhibition of growth at 0.016 ppm (Pyricularia oryzae): 8%
inhibition of growth at 0.063 ppm (Pyricularia oryzae): 10%
inhibition of growth at 0.25 ppm (Pyricularia oryzae): 21%
inhibition of growth at 1 ppm (Pyricularia oryzae): 65%
inhibition of growth at 1 ppm (Botrytis cinerea; [1]): 33%
inhibition of growth at 0.004 ppm (Septoria tritici; Zymoseptoria tritici, 168 h, 0.004 ppm, read-out: Observed efficacy): 4%
inhibition of growth at 0.016 ppm (Septoria tritici; [4]): 3%
inhibition of growth at 0.063 ppm (Septoria tritici; [5]): 10%
inhibition of growth at 0.25 ppm (Septoria tritici; [2]): 22%

Cc1cc(C2=NC(C)(C)Oc3c(F)cccc32)cnc1C(F)F [Compound 1-2]
inhibition of growth at 0.063 ppm (Pyricularia oryzae): 4%
inhibition of growth at 0.25 ppm (Pyricularia oryzae): 15%
inhibition of growth at 1 ppm (Pyricularia oryzae): 31%
inhibition of growth at 1 ppm (Botrytis cinerea; [1]): 19%
inhibition of growth at 0.25 ppm (Septoria tritici; [2]): 0%
inhibition of growth at 1 ppm (Septoria tritici; [3]): 0%

COc1ccc2c(c1F)OC(C)(C)N=C2c1cnc(C(F)F)c(C)c1 [Compound 1-3]
inhibition of growth at 0.063 ppm (Pyricularia oryzae): 0%
inhibition of growth at 1 ppm (Pyricularia oryzae): 12%
inhibition of growth at 1 ppm (Botrytis cinerea; [1]): 12%
inhibition of growth at 0.063 ppm (Septoria tritici; [5]): 21%
inhibition of growth at 0.25 ppm (Septoria tritici; [2]): 20%
inhibition of growth at 1 ppm (Septoria tritici; [3]): 18%

CC1COC(Cn2cncn2)(c2ccc(Oc3ccc(Cl)cc3)cc2Cl)O1 (stereo not drawn) [Difenoconazol, difenoconazole]
inhibition of growth at 0.063 ppm (Botrytis cinerea; [6]): 8%

CNC(=O)/C(=N/OC)c1ccccc1COc1cc(C)ccc1C [Dimoxystrobin, dimoxystrobin]
Observed efficacy (Botrytis cinerea; 0.25 ppm): 2%

COc1ccnc(C(=O)N[C@@H](C)C(=O)O[C@@H](C)C(c2ccc(F)cc2)c2ccc(F)cc2)c1OC(C)=O [Florylpicoxamid, florylpicoxamid]
Observed efficacy (Pyricularia oryzae; 0.004 ppm): 28%
Observed efficacy (Pyricularia oryzae; 0.016 ppm): 70%
Observed efficacy (Septoria tritici; 0.016 ppm): 47%

O=[N+]([O-])c1cc(C(F)(F)F)c(Cl)c([N+](=O)[O-])c1Nc1ncc(C(F)(F)F)cc1Cl [Fluazinam, fluazinam]
inhibition of growth at 0.063 ppm (Pyricularia oryzae): 19%
inhibition of growth at 0.063 ppm (Septoria tritici; [5]): 5%

N#Cc1c[nH]cc1-c1cccc2c1OC(F)(F)O2 [Fludioxonil, fludioxonil]
inhibition of growth at 0.016 ppm (Pyricularia oryzae): 14%
inhibition of growth at 0.063 ppm (Pyricularia oryzae): 45%
inhibition of growth at 0.25 ppm (Pyricularia oryzae): 69%
inhibition of growth at 0.016 ppm (Septoria tritici; [4]): 1%

O=C(NCCc1ncc(C(F)(F)F)cc1Cl)c1ccccc1C(F)(F)F [Fluopyram, fluopyram]
inhibition of growth at 0.25 ppm (Septoria tritici; [2]): 33%

Cn1cc(C(=O)Nc2ccccc2-c2cc(F)c(F)c(F)c2)c(C(F)F)n1 [Fluxapyroxad, fluxapyroxad]
Observed efficacy (Botrytis cinerea; 0.063 ppm): 29%
Observed efficacy (Septoria tritici; 0.063 ppm): 27%

CC(C)NC(=O)N1CC(=O)N(c2cc(Cl)cc(Cl)c2)C1=O [Iprodion, iprodione]
inhibition of growth at 4 ppm (Pyricularia oryzae): 42%
inhibition of growth at 1 ppm (Botrytis cinerea; [1]): 52%
inhibition of growth at 1 ppm (Septoria tritici; [3]): 9%

Cc1cc(OC(C)C)ccc1C(=O)C(C)(C)NC(=O)c1sccc1C [Isofetamid, isofetamid]
Observed efficacy (Pyricularia oryzae; 4 ppm): 15%
Observed efficacy (Septoria tritici; 0.25 ppm): 45%

Cc1cccc(-n2nnn(C)c2=O)c1COc1ccn(-c2ccc(Cl)cc2)n1 [Methyltetraprol, metyltetraprole]
Observed efficacy (Pyricularia oryzae; 0.016 ppm): 38%
Observed efficacy (Septoria tritici; 0.016 ppm): 51%

CC(C)CC(C)c1sccc1NC(=O)c1cn(C)nc1C(F)(F)F (stereo not drawn) [Penthiopyrad, penthiopyrad]
inhibition of growth at 0.063 ppm (Botrytis cinerea; [6]): 10%
inhibition of growth at 0.063 ppm (Septoria tritici; [5]): 33%

OC(Cc1ccccc1Cl)(Cn1nc[nH]c1=S)C1(Cl)CC1 (stereo not drawn) [Prothioconazol, prothioconazole]
inhibition of growth at 1 ppm (Pyricularia oryzae): 15%
inhibition of growth at 1 ppm (Botrytis cinerea; [1]): 22%
inhibition of growth at 4 ppm (Botrytis cinerea; Botrytis cinerea, 168 h, 4 ppm, read-out: Observed efficacy): 58%
inhibition of growth at 0.25 ppm (Septoria tritici; [2]): 66%

CON(C(=O)c1cn(C)nc1C(F)F)C(C)Cc1c(Cl)cc(Cl)cc1Cl (stereo not drawn) [Pydiflumetofen, pydiflumetofen]
Observed efficacy (Botrytis cinerea; 0.063 ppm): 15%
Observed efficacy (Septoria tritici; 0.016 ppm): 67%

CC(C)(C)C(O)(CCc1ccc(Cl)cc1)Cn1cncn1 (stereo not drawn) [Tebuconazol, tebuconazole]
inhibition of growth at 0.25 ppm (Pyricularia oryzae): 10%
inhibition of growth at 0.25 ppm (Botrytis cinerea; Botrytis cinerea, 168 h, 0.25 ppm, read-out: Observed efficacy): 38%
inhibition of growth at 0.25 ppm (Septoria tritici; [2]): 50%

Cc1ccc(NC(=O)c2snnc2C)cc1Cl [Tiadinil, tiadinil]
inhibition of growth at 4 ppm (Septoria tritici; Zymoseptoria tritici, 168 h, 4 ppm, read-out: Observed efficacy): 10%

— patent US20250338849A1 (priority 2022, published 2025)
